Data set [1] concerns HMC1. Put plainly: Immunomodulatory activity in human HMC1 cells assessed as inhibition of phorbol 12-myristate 13-acetate/A23187-stimulated IL1-beta secretion treated 1 hr prior to 30 mins phorbol 12-myristate 13-acetate/A23187 challenge by Western blotting analysis. It is filed as functional, cell-based. In general terms: A western blot detects proteins with antibodies after separation by electrophoresis.

For data set [2], the system named is HMC1. As to the kind of experiment: Immunomodulatory activity in human HMC1 cells assessed as inhibition of phorbol 12-myristate 13-acetate/A23187-stimulated IL1-beta secretion at 1 to 100 uM treated 1 hr prior to 30 mins phorbol 12-myristate 13-acetate/A23187 challenge by Western blotting analysis. It is filed as functional, cell-based.
The subject of data set [3] is HMC1. As to the kind of experiment: Suppression of NF-kappaB activation in human HMC1 cells assessed as inhibition of phorbol 12-myristate 13-acetate/A23187-stimulated IkappaB-alpha degradation at 1 to 100 uM treated 1 hr prior to 2 hrs phorbol 12-myristate 13-acetate/A23187 challenge by Western blotting analysis. Format: cell-based.
For data set [4], the system named is HMC1. As to the kind of experiment: Suppression of NF-kappaB activation in human HMC1 cells assessed as inhibition of phorbol 12-myristate 13-acetate/A23187-stimulated luciferase activity at 1 to 100 uM treated 1 hr prior to 24 hrs phorbol 12-myristate 13-acetate/A23187 challenge by luciferase reporter gene assay. It is filed as cell-based. For orientation: In a reporter assay the amount or activity of a reporter protein is the signal.

A short description of data set [5]: Cytotoxicity against human HMC1 cells assessed as cell viability at 1 to 100 uM after 8 hrs by MTT colorimetric assay. Format: cell-based. The conditions noted are these: hmc1, 8 h.
The subject of data set [6] is HMC1. Put plainly: Immunomodulatory activity in human HMC1 cells assessed as inhibition of phorbol 12-myristate 13-acetate/A23187-stimulated JNK phosphorylation at 1 to 100 uM treated 1 hr prior to 30 mic phorbol 12-myristate 13-acetate/A23187 challenge. It is filed as functional, cell-based.
In data set [7] the test system is HMC1. As to the kind of experiment: Immunomodulatory activity in human HMC1 cells assessed as inhibition of phorbol 12-myristate 13-acetate/A23187-stimulated RIP-2 activation at 1 to 100 uM treated 1 hr prior to 30 mins phorbol 12-myristate 13-acetate/A23187 challenge by Western blotting analysis. Format: functional, cell-based.
Data set [8] deals with HMC1. As to the kind of experiment: Immunomodulatory activity in human HMC1 cells assessed as inhibition of phorbol 12-myristate 13-acetate/A23187-stimulated IL-6 mRNA expression at 1 to 100 uM treated 1 hr prior to 5 hrs phorbol 12-myristate 13-acetate/A23187 challenge by RT-PCR analysis. Format: functional, cell-based.
Data set [9] deals with HMC1. As to the kind of experiment: Immunomodulatory activity in human HMC1 cells assessed as inhibition of phorbol 12-myristate 13-acetate/A23187-stimulated ERK phosphorylation at 1 to 100 uM treated 1 hr prior to 30 mins phorbol 12-myristate 13-acetate/A23187 challenge. Format: functional, cell-based.
Data set [10] deals with HMC1. As to the kind of experiment: Immunomodulatory activity in human HMC1 cells assessed as inhibition of phorbol 12-myristate 13-acetate/A23187-stimulated histamine secretion at 100 uM treated 1 hr prior to 6 hrs phorbol 12-myristate 13-acetate/A23187 challenge by histamine assay kit. It is filed as functional, cell-based.
Data set [11] deals with HMC1. Put plainly: Immunomodulatory activity in human HMC1 cells assessed as inhibition of phorbol 12-myristate 13-acetate/A23187-stimulated caspase 1 activation at 1 to 100 uM treated 1 hr prior to 30 mins phorbol 12-myristate 13-acetate/A23187 challenge by caspase colorimetric assay. Format: functional, cell-based.
Data set [12] has as its system HMC1. As to the kind of experiment: Immunomodulatory activity in human HMC1 cells assessed as inhibition of phorbol 12-myristate 13-acetate/A23187-stimulated caspase 1 activation at 1 to 100 uM treated 1 hr prior to 30 mins phorbol 12-myristate 13-acetate/A23187 challenge by Western blotting analysis. It is filed as functional, cell-based.
For data set [13], the system named is HMC1. Put plainly: Suppression of NF-kappaB activation in human HMC1 cells assessed as inhibition of phorbol 12-myristate 13-acetate/A23187-stimulated nuclear Rel A/p65 level at 1 to 100 uM treated 1 hr prior to 2 hrs phorbol 12-myristate 13-acetate/A23187 challenge by Western blotting analysis. Format: cell-based.
In data set [14] the test system is HMC1. As to the kind of experiment: Immunomodulatory activity in human HMC1 cells assessed as inhibition of phorbol 12-myristate 13-acetate/A23187-stimulated p38 phosphorylation at 1 to 100 uM treated 1 hr prior to 30 mic phorbol 12-myristate 13-acetate/A23187 challenge. Format: functional, cell-based.
The subject of data set [15] is HMC1. Put plainly: Immunomodulatory activity in human HMC1 cells assessed as inhibition of phorbol 12-myristate 13-acetate/A23187-stimulated IL-6 secretion by ELISA method. It is filed as functional, cell-based. On the technique in general: In an ELISA, binding on a coated surface is turned into a signal by an enzyme label.

Activity calls are given as the source filed them. The rule behind the calls is not given here.

As for `C[C@@H]1C[C@H]2[C@@H]3CCC4=CC(=O)C=C[C@]4(C)[C@@]3(F)[C@@H](O)C[C@]2(C)[C@@]1(O)C(=O)CO`, the inhibition result in [1] is “Active”.

For `C=C1CCC[C@]2(C)C[C@]3(O)OC(=O)C(C)=C3C[C@@H]12` [ATRACTYLENOLIDE III], the inhibition result in data set [2], in data set [3], in [4], in [6], in [8] and in data set [10] was “Active” throughout. Besides, the inhibition result in data set [11], in [13] and in data set [14] was “Active” each time. For the same compound, the Activity entry in data set [5] was “Non-toxic”. The inhibition result in [7], in [12] and in data set [15] was “Dose-dependent effect” in each case. For the same compound, the inhibition entry in data set [9] is “inactive”.

For the origin of these results see ChEMBL document CHEMBL1687905, “Blockade of IL-6 secretion pathway by the sesquiterpenoid atractylenolide III” (J Nat Prod, 2011).
